The record followed here is patent publication US4581172A, “Substituted pyrimido[6,1-a]isoquinolin-4-ones,pyrimido[6,1-a]benzozepin-4-ones and pyrimido[6,1-a]benzodiazepin-4-ones useful for prevention of thromboses and treating hypertension” (Hoffmann-La Roche Inc., priority 1983, dated 1986).

Data set [1] has as its system Human platelet-rich plasma. Description: Inhibition of collagen-initiated platelet aggregation (aggregometer method). The note with it: 10 min, human citrate plasma, 10 minutes at 37° C., aggregation initiated by collagen fibrils, hydrochlorides of the products tested, read-out: EC50 (maximum aggregation velocity). The class given is cell-based. The procedure: The maximum aggregation velocity was taken as the test parameter and the effective concentration (EC50) was ascertained from dosage-activity curves. Human platelet-rich plasma was obtained by centrifugation from citrated venous blood. The experiments were carried out with suspensions of the test substances in 0.9% sodium chloride. 0.18 ml of citrate plasma was treated with a 10 μl suspension of the test compounds and the mixture was incubated at 37° C. for 10 minutes, whereupon the aggregation was initiated by the addition of 10 μl of a suspension of collagen fibrils. The following EC50 values (in μM) were ascertained for the hydrochlorides of the products of certain Examples hereinafter: […]

Data set [2] can be described thus: Acute toxicity (LD50) p.o. in mice. The note with it: mouse, in vivo, po, hydrochloride.

In the case of `COc1cc2c(cc1OC)-c1cc(=Nc3c(C)cc(C)cc3C)n(C)c(=O)n1C(C)C2` (centres unmarked) [4(a), 9,10-dimethoxy-3,6-dimethyl-2-mesitylimino-2,3,6,7-tetrahydro-4H-pyrimido[6,1-a]isoquinolin-4-one], the concentration giving a half-maximal response (EC50) (as a rule, the concentration giving half of the maximal effect) in data set [1] was 100 nM.

With `COc1cc2c(cc1OC)-c1cc(=Nc3c(C)cc(C)cc3C)n(C)c(=O)n1CCC2` [5(a), 10,11-dimethoxy-2-mesitylimino-3-methyl-2,3,7,8-tetrahydro-4H,6H-pyrimido[6,1-a]benzazepin-4-one], the EC50 in data set [1] turned out to be 120 nM.

As for `COc1cc2c(cc1OC)C(C)Cn1c-2cc(=Nc2ccccc2C)n(C)c1=O` (centres unmarked) [6a) 2.], in data set [2], the LD50 (in general, the dose at which mortality reaches 50%) came out at 2500 mg/kg.

For `COc1cc2c(cc1OC)-c1cc(Nc3c(C)cc(C)cc3C)nc(=O)n1C(C)C2` (centres unmarked) [Example 2(a), 6,7-dihydro-9,10-dimethoxy-2-mesitylamino-6-methyl-4H-pyrimido[6,1-a]isoquinolin-4-one], the EC50 in data set [1] is 110 nM.

Consider `COc1cc2c(cc1OC)C(C)Cn1c-2cc(=Nc2c(C)cc(C)cc2C)n(C)c1=O` (centres unmarked) [Example 3, 9,10-dimethoxy-3,7-dimethyl-2-mesitylimino-2,3,6,7-tetrahydro-4H-pyrimido[6,1-a]isoquinolin-4-one], for which, in data set [1], the EC50 is 600 nM.
